For ten compounds, TGI and GI50 results are on record in PubChem BioAssay (NCI).

Among the test systems are SK-MEL-28 melanoma; BT-549 breast; SF-268 CNS; A498 renal; A549 NSCLC; MOLT-4 leukemia; NCI-H23 lung; LOX IMVI melanoma; 786-0 renal; HCC-2998 colon.
Holding throughout (assay): inhibition of tumour cell growth, NCI panel, 48 h

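Values below derive from 48-hour exposures of cells grown in 96-well plates, with endpoints linearly interpolated between the two concentrations bracketing the appropriate inhibition level. GI50: concentration for 50% inhibition of growth. At the TGI there is no net growth.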

With `O=c1c2ccccc2sc2c(CO)ccc(NCCN3CCCCC3)c12`, the TGI in the test on SK-MEL-28 melanoma turned out to be 8.54 µM; in the test with BT-549 breast, 23 µM; with SF-268 CNS, 13.1 µM; in the test on A498 renal it was 9.61 µM; in the test with A549 NSCLC, 12.8 µM; in the test on MOLT-4 leukemia, 5.36 µM. In addition, the TGI is 10.3 µM with NCI-H23 lung, 11 µM in the test on LOX IMVI melanoma and 12.2 µM in the test with 786-0 renal.

Take `CCCCCCCCCCCC[N+]1(CCCCCCCCCCCC)CCCC(C)C1` (stereo not drawn): the GI50 is 303 nM in the test on HCC-2998 colon; 487 nM in the test on SK-MEL-28 melanoma; 817 nM in the test with BT-549 breast; 293 nM with SF-268 CNS; 1260 nM in the test on A498 renal; 172 nM with A549 NSCLC. The GI50 in the test with NCI-H23 lung was 113 nM; in the test with LOX IMVI melanoma, 348 nM; with 786-0 renal it was 412 nM. For the same compound, the TGI in the test with HCC-2998 colon was 1.38 µM; in the test with SK-MEL-28 melanoma, 1.73 µM; in the test with BT-549 breast, 3.25 µM; with SF-268 CNS, 1.25 µM; with A498 renal it was 2.52 µM; in the test with A549 NSCLC it was 0.736 µM. The TGI stood at 0.399 µM with NCI-H23 lung, 1.39 µM in the test on LOX IMVI melanoma and 1.66 µM with 786-0 renal.

With `CCN(CC)CCCNc1ccc(C)c2sc3ccccc3c(=O)c12`, the GI50 with HCC-2998 colon is 488 nM; in the test on SK-MEL-28 melanoma, 201 nM; in the test on BT-549 breast, 1830 nM; with SF-268 CNS it was 1310 nM; in the test on A549 NSCLC, 554 nM; in the test with MOLT-4 leukemia it was 384 nM. Moreover, the GI50 was 1750 nM in the test with NCI-H23 lung, 423 nM in the test on LOX IMVI melanoma and 822 nM in the test on 786-0 renal. The TGI in the test with HCC-2998 colon was determined as 1.77 µM; with SK-MEL-28 melanoma, 0.435 µM; with BT-549 breast, 11.1 µM; in the test with SF-268 CNS, 3.74 µM; in the test with A549 NSCLC, 1.99 µM; with MOLT-4 leukemia, 1.35 µM. Moreover, the figures for the TGI in the test on NCI-H23 lung, in the test with LOX IMVI melanoma and in the test on 786-0 renal were 5.04 µM, 1.58 µM and 2.18 µM, respectively.

Take `N#Cc1nc2c(S(=O)(=O)c3ccc(Cl)cc3)c(N)n(Nc3cccc(Cl)c3)c2nc1C#N`: the GI50 in the test on HCC-2998 colon is 16.1 nM; with SK-MEL-28 melanoma it was 3.49 nM; with BT-549 breast it was 131 nM; in the test on MOLT-4 leukemia, 16.2 nM; in the test with NCI-H23 lung, 32.4 nM; in the test on LOX IMVI melanoma, 30.1 nM. Besides, the GI50 in the test with 786-0 renal was 38.9 nM. Also, the TGI in the test on HCC-2998 colon was more than 100 µM; in the test with SK-MEL-28 melanoma, 0.011 µM; with SF-268 CNS it was more than 100 µM; in the test on A549 NSCLC, more than 100 µM; in the test on MOLT-4 leukemia, 0.103 µM.

In the case of `COc1cc(CNc2nc3cc(N)cc(N)c3nc2-c2ccccc2)cc(OC)c1`, the GI50 in the test on SK-MEL-28 melanoma is 1760 nM; with BT-549 breast, 9700 nM; in the test on SF-268 CNS, 5320 nM; in the test on A498 renal, 90800 nM; in the test with A549 NSCLC, 33200 nM; in the test on MOLT-4 leukemia, 3020 nM. In addition, the GI50 with NCI-H23 lung was 16200 nM; with LOX IMVI melanoma, 4510 nM; in the test with 786-0 renal it was 12700 nM. In addition, the TGI is 8.62 µM with SK-MEL-28 melanoma; more than 100 µM in the test on BT-549 breast; more than 100 µM in the test on SF-268 CNS; more than 100 µM in the test on A498 renal; more than 100 µM in the test on A549 NSCLC; more than 100 µM with MOLT-4 leukemia. For the same compound, the TGI is more than 100 µM in the test with NCI-H23 lung, 81.7 µM with LOX IMVI melanoma and 44.2 µM with 786-0 renal.

Turning to `O=C1CC(c2ccccc2)Oc2ccccc21` (stereo not drawn), the TGI was more than 100 µM in the test on HCC-2998 colon; more than 100 µM with SK-MEL-28 melanoma; 42.1 µM with BT-549 breast; more than 100 µM in the test on SF-268 CNS; 94 µM in the test on A498 renal; 34.4 µM in the test with MOLT-4 leukemia. Besides, the TGI with NCI-H23 lung is 45.5 µM; in the test with LOX IMVI melanoma it was 84.3 µM; in the test with 786-0 renal, more than 100 µM.

With `COc1ccc(OC)c(NCC(=O)n2nc(/C=C\c3ccc(O)c(OC)c3)cc2/C=C\c2ccc(O)c(OC)c2)c1`, the GI50 with HCC-2998 colon was 2040 nM; with SK-MEL-28 melanoma, 2660 nM; in the test on BT-549 breast it was 1440 nM; in the test with SF-268 CNS, 2370 nM; in the test on A498 renal, 1600 nM; with A549 NSCLC, 3400 nM. Moreover, the figures for the GI50 in the test with MOLT-4 leukemia, with NCI-H23 lung and in the test on 786-0 renal were 1110 nM, 2620 nM and 2100 nM, respectively. The TGI in the test on HCC-2998 colon was 3.98 µM; with SK-MEL-28 melanoma it was 12.3 µM; with BT-549 breast it was 5.7 µM; in the test on SF-268 CNS, more than 100 µM; in the test on A498 renal it was 5.7 µM; in the test on A549 NSCLC it was 33.1 µM. The TGI was 9.21 µM with MOLT-4 leukemia, 31.7 µM in the test on NCI-H23 lung and 7.97 µM with 786-0 renal.

For the compound `COC(=O)C1C(=O)O[C@@H](c2ccc3c(c2)OCO3)C1C(=O)OC` (mixture of isomers), the TGI with HCC-2998 colon, in the test with SK-MEL-28 melanoma, with SF-268 CNS, in the test with A498 renal, in the test with A549 NSCLC and in the test on MOLT-4 leukemia was more than 100 µM each time. Also, the TGI in the test on NCI-H23 lung, in the test on LOX IMVI melanoma and with 786-0 renal was more than 100 µM in each case.

Take `COc1ccc2sc3c(NCCCN)nc4ccccc4c3c(=O)c2c1`: the GI50 in the test on HCC-2998 colon is 1660 nM; in the test on SK-MEL-28 melanoma, 1800 nM; with BT-549 breast it was 1690 nM; in the test with SF-268 CNS, 1660 nM; in the test with A498 renal, 1520 nM; in the test on A549 NSCLC it was 1640 nM. Further, the values for the GI50 in the test on MOLT-4 leukemia, in the test on NCI-H23 lung and in the test on 786-0 renal were 1480 nM, 1760 nM and 1630 nM, respectively. Also, the TGI in the test on HCC-2998 colon worked out at 3.34 µM; in the test with SK-MEL-28 melanoma, 3.28 µM; with BT-549 breast, 3.55 µM; in the test with SF-268 CNS, 3.44 µM; in the test on A498 renal it was 5.59 µM; in the test on A549 NSCLC, 3.39 µM. In addition, the TGI with MOLT-4 leukemia stood at 3.17 µM; in the test on NCI-H23 lung, 3.43 µM; in the test with 786-0 renal it was 3.11 µM.

As for `CC(Br)C(=O)NC(CO)C(=O)O` (stereo not drawn), the TGI in the test with SK-MEL-28 melanoma, in the test with BT-549 breast, in the test on SF-268 CNS, in the test with A498 renal, with A549 NSCLC and in the test with MOLT-4 leukemia was more than 100 µM each time. Besides, the TGI in the test with NCI-H23 lung, in the test on LOX IMVI melanoma and with 786-0 renal was more than 100 µM throughout.
